This is an account of results in patent US8129417B2, “Substituted octahydrocyclopenta[C]pyrrol-4-amines as calcium channel blockers” (Abbott Laboratories, priority 2008, dated 2012).

human Cav2.2, sequence (Q00975 whole entry): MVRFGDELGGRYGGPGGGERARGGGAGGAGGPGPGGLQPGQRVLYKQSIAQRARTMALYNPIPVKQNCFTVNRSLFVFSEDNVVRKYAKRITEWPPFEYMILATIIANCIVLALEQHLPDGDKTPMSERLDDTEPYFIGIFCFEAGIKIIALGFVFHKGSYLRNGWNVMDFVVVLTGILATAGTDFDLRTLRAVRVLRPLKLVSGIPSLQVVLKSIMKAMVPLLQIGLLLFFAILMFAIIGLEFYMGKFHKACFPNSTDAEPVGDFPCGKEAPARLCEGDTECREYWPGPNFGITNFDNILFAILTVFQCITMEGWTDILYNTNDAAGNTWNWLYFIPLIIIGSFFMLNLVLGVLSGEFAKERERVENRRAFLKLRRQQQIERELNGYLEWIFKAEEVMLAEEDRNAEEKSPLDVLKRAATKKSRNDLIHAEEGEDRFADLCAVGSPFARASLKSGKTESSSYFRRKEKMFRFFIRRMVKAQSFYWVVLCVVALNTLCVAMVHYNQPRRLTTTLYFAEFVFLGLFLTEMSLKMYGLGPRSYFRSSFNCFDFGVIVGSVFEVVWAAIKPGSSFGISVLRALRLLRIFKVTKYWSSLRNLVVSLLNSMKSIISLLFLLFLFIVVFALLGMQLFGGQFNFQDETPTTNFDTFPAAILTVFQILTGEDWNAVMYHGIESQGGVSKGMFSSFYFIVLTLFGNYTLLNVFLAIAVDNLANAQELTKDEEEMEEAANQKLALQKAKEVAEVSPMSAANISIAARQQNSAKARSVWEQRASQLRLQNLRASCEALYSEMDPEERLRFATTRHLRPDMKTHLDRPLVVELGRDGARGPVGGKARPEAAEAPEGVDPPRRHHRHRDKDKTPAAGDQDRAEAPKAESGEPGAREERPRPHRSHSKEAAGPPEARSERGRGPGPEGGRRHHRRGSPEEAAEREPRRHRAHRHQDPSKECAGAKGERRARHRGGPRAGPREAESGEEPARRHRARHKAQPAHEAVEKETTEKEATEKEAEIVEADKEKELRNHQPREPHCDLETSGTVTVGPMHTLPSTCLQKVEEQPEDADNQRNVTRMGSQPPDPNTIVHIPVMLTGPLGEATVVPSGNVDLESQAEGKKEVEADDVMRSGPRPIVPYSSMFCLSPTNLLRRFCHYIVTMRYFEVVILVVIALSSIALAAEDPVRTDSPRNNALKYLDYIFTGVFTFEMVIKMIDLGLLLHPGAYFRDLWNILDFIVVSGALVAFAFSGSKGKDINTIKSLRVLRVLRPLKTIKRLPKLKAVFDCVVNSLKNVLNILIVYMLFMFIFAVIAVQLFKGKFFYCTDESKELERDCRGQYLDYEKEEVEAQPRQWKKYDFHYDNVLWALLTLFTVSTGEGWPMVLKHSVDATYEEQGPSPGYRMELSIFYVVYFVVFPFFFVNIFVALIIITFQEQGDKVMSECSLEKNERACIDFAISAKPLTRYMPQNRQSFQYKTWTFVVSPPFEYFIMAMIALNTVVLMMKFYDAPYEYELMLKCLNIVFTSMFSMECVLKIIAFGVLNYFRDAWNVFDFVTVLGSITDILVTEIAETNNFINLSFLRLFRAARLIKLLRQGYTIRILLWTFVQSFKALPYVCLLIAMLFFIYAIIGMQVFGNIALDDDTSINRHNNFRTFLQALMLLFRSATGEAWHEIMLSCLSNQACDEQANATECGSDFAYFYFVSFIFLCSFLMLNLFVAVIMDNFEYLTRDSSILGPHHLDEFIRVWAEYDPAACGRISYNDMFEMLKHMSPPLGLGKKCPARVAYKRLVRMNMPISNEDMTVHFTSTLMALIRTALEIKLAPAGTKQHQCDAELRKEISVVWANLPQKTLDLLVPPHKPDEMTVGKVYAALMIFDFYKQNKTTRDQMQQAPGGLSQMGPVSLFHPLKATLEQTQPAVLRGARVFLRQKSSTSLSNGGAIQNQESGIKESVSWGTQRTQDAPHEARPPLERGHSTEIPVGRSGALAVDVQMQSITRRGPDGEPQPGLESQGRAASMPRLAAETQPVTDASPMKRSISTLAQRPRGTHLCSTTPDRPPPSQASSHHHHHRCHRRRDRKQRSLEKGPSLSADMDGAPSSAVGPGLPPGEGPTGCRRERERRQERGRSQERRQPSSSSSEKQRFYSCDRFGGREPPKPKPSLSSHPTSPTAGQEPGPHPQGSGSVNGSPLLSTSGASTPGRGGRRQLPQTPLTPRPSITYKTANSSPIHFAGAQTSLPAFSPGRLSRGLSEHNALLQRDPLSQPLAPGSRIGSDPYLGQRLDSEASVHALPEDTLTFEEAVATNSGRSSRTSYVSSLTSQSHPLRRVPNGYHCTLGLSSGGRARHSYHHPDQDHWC
human Cav2.2, sequence (P54289 25-946 partner limits assumed): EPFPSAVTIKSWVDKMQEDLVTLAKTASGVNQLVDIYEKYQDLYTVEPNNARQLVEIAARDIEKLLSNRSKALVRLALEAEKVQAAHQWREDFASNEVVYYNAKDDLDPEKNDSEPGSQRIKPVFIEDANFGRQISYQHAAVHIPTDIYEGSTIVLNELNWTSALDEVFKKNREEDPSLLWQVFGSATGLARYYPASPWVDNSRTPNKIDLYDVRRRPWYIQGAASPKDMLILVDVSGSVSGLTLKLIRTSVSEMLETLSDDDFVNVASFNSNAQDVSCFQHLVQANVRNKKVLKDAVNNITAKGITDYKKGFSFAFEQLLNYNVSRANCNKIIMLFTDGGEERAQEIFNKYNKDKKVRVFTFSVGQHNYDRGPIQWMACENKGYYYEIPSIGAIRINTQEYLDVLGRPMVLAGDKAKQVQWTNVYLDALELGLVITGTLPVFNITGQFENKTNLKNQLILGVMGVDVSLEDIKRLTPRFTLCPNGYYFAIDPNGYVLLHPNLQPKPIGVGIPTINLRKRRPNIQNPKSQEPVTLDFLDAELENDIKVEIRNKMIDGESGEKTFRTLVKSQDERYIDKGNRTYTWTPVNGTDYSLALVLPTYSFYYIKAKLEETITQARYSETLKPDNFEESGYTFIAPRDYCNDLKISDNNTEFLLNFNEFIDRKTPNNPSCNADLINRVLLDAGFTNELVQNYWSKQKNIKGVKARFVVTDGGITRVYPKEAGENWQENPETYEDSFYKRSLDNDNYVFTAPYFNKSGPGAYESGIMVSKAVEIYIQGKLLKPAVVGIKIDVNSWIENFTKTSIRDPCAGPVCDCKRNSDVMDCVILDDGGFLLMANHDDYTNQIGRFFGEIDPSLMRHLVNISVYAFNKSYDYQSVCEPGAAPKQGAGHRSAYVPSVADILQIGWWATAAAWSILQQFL
human Cav2.2, sequence (P54289 947-1103 partner limits assumed): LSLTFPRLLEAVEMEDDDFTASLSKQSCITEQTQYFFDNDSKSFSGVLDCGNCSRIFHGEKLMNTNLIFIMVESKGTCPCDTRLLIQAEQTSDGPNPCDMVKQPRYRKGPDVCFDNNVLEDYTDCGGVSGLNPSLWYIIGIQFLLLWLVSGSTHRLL
human Cav2.2, sequence (P54284 whole entry partner): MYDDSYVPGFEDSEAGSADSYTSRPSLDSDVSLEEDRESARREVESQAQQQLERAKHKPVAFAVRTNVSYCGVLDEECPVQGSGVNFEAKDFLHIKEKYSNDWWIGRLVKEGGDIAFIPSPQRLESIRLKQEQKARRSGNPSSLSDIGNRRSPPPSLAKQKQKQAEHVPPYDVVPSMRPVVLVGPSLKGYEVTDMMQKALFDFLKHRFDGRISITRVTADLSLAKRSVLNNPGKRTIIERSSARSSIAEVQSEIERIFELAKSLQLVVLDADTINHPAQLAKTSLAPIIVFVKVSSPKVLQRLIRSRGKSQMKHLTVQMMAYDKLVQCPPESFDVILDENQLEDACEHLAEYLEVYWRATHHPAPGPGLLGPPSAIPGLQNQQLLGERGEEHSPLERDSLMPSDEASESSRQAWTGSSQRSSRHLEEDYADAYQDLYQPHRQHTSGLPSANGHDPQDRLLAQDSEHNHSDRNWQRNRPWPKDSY

The test addresses human Cav2.2 (Homo sapiens, UniProt Q00975). In words: Assessment of calcium channel activity using FLIPR (Ca2+ influx in IMR32 cells). Format: cell-based. As to conditions: 60 minute pre-incubation with compound, 2 μM nifedipine, depolarized with 80 mM KCl. The gist of the method: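 IC50 came from sigmoidal non-linear regression of percent inhibition, relative to uninhibited activity, across compound concentrations. Calcium influx was measured by FLIPR in IMR32 cells plated at 1-1.2×10^5 cells/well and cultured 48 h at 37 °C.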
As for `CCN([C@@H](CC(C)C)C(=O)N[C@H]1CC[C@@H]2CN(Cc3cccc(C(F)(F)F)c3)C[C@@H]21)S(C)(=O)=O` [Example 518, N^2-ethyl-N^2-(methylsulfonyl)-N^1-{(3aR,4S,6aS)-2-[3-(trifluoromethyl)benzyl]octahydrocyclopenta[c]pyrrol-4-yl}-L-leucinamide], the IC50 is 0.81 µM.

Consider `CC(C)(C)C[C@H](NS(C)(=O)=O)C(=O)N[C@H]1CC[C@@H]2CN(Cc3ccc(C(F)(F)F)cc3)C[C@@H]21` [Example 519, 4-methyl-N^2-(methylsulfonyl)-N^1-{(3aR,4S,6aS)-2-[4-(trifluoromethyl)benzyl]octahydrocyclopenta[c]pyrrol-4-yl}-L-leucinamide], for which the IC50 is 5.14 µM.

Take `CCC[C@H](NS(C)(=O)=O)C(=O)N[C@H]1CC[C@@H]2CN(Cc3ccc(C(F)(F)F)cc3)C[C@@H]21` [Example 521, N^2-(methylsulfonyl)-N^1-{(3aR,4S,6aS)-2-[4-(trifluoromethyl)benzyl]octahydrocyclopenta[c]pyrrol-4-yl}-L-norvalinamide]: the IC50 was 9.6 µM.

`CC(C)C[C@H](NS(=O)(=O)C(C)C)C(=O)N[C@@H]1CC[C@H]2CN(Cc3cccc(C(F)(F)F)c3)C[C@H]21` [Example 522, N^2-(isopropylsulfonyl)-N^1-{(3aS,4R,6aR)-2-[3-(trifluoromethyl)benzyl]octahydrocyclopenta[c]pyrrol-4-yl}-L-leucinamide]: the IC50 stood at 2.9 µM.

In the case of `CC(C)C[C@H](NS(=O)(=O)C1CCCC1)C(=O)N[C@@H]1CC[C@H]2CN(Cc3cccc(C(F)(F)F)c3)C[C@H]21` [Example 524, N^2-(cyclopentylsulfonyl)-N^1-{(3aS,4R,6aR)-2-[3-(trifluoromethyl)benzyl]octahydrocyclopenta[c]pyrrol-4-yl}-L-leucinamide], the IC50 was 2.07 µM.

Regarding `CC(C)OC(=O)N[C@@H](CC(C)(C)C)C(=O)N[C@H]1CC[C@@H]2CN(Cc3ccc(C(F)(F)F)cc3)C[C@@H]21` [Example 525, Isopropyl (S)-4,4-dimethyl-1-oxo-1-((3aR,4S,6aS)-2-(4-(trifluoromethyl)benzyl)octahydrocyclopenta[c]pyrrol-4-ylamino)pentan-2-ylcarbamate], the IC50 turned out to be 1.39 µM.

As for `CC(C)OC(=O)N[C@H](C(=O)N[C@H]1CC[C@@H]2CN(Cc3ccc(C(F)(F)F)cc3)C[C@@H]21)C(C)(C)C` [Example 526, Isopropyl (S)-3,3-dimethyl-1-oxo-1-((3aR,4S,6aS)-2-(4-(trifluoromethyl)benzyl)octahydrocyclopenta[c]pyrrol-4-ylamino)butan-2-ylcarbamate], the IC50 was 2.77 µM.

With `CCC[C@H](NC(=O)OC1CCCC1)C(=O)N[C@H]1CC[C@@H]2CN(Cc3ccc(C(F)(F)F)cc3)C[C@@H]21` [Example 527, Cyclopentyl (S)-1-oxo-1-((3aR,4S,6aS)-2-(4-(trifluoromethyl)benzyl)octahydrocyclopenta[c]pyrrol-4-ylamino)pentan-2-ylcarbamate], the IC50 was determined as 2.29 µM.

In the case of `CCC[C@H](NC(=O)C(C)(C)C)C(=O)N[C@H]1CC[C@@H]2CN(Cc3ccc(C(F)(F)F)cc3)C[C@@H]21` [Example 528, N^2-(2,2-dimethylpropanoyl)-N^1-{(3aR,4S,6aS)-2-[4-(trifluoromethyl)benzyl]octahydrocyclopenta[c]pyrrol-4-yl}-L-norvalinamide], the IC50 is 7.23 µM.

In the case of `CCC[C@@H](C(=O)N[C@H]1CC[C@@H]2CN(S(=O)(=O)c3ccc(F)c(Cl)c3)C[C@@H]21)N(C)C(=O)OC(C)(C)C` [Example 529, Tert-butyl (S)-1-((3aR,4S,6aS)-2-(3-chloro-4-fluorophenylsulfonyl)octahydrocyclopenta[c]pyrrol-4-ylamino)-1-oxopentan-2-yl(methyl)carbamate], the IC50 amounted to 0.96 µM.

For `CCC[C@@H](C(=O)N[C@H]1CC[C@@H]2CN(S(=O)(=O)c3cccnc3)C[C@@H]21)N(C)C(=O)OC(C)(C)C` [Example 530, Tert-butyl methyl((S)-1-oxo-1-((3aR,4S,6aS)-2-(pyridin-3-ylsulfonyl)octahydrocyclopenta[c]pyrrol-4-ylamino)pentan-2-yl)carbamate], the IC50 stood at 7.63 µM.

In general, IC50 refers to the midpoint of a concentration-inhibition curve.
